Data set [1] has as its system TG3 immunoreactivity in OKA treated MSN1a cells. In words: MSN1a cell culture model, ELISA with TG3 antibody, okadaic acid treated cells. In kind it is cell-based, human. To be noted: 1 μM OKA, 2 hrs at 37° C., read-out: IC50 for inhibition of TG3 immunoreactivity in OKA treated MSN1a cells. The procedure:
This assay can thus be used to determine whether a drug is capable of preventing or intervening in AD by attenuating the production of abnormally phosphorylated paired helical filament epitopes associated with AD. To determine whether a drug is capable of preventing or intervening in AD activity, the MSN1a cells containing tau and associated proteins are treated with OKA capable of greatly increasing immunoreactivity of the MSN1a cells with AD specific monoclonal antibodies. Then, either prior to or concomitantly with OKA treatment, a compound of the present invention is added to the culture. If the compound prevents the induction of the AD epitopes in the MSN1a cells treated with OKA, then it is said to have anti-AD activity. If the AD-specific antibodies are highly reactive with the neuroblastoma cells following OKA treatment in the presence of compound, then the compound is said to be ineffectual against AD.
The MSN1a human neuroblastoma line was subcloned from a population of MSN cells obtained from the laboratory of Dr. Peter Davies (Albert Einstein College of Medicine, New York, N.Y.). Cells were grown and maintained in flasks in RPMI 1640 medium, supplemented with 15% fetal calf serum, 100 U/ml penicillin, 100 U/ml Streptomycin, 0.5 ug/ml fungizone under 7.5% CO2 at 37° C.
Stock solutions of drugs were prepared by dissolving the anhydrous powders to final concentrations of either 10 or 20 mM in 50% aqueous or 100% dimethyl sulfoxide (DMSO), respectively. Working solutions of drugs were prepared by dilution of the stock solutions with Kreb's Ringer in Hepes buffer (KRH) (128 mM NaCl, 5 mM KCl, 2.5 mM CaCl2 1.2 mM MgSO4, 1 mM Na2HPO4, 10 mM dextrose, 20 mM Hepes, pH 7.4). OKA is maintained as a 1 mM stock solution in DMSO prior to dilution to 4 μM in KRH.
MSN cells grown in 225 cm^2 flasks are removed from the incubator, their medium decanted and replaced with 50 ml pre-warmed KRH. The cells are harvested by scraping prior to sedimentation at 1000 rpm for 5 min. The supernatants are discarded and the cell pellets are resuspended, the cells counted and diluted to a density of 2×10^4 cells/[…]. The cells are then plated in a 96 well plate at 50 μl/well and 25 μl of 4 μM OKA and 25 μl of drug are then added to the appropriate wells; the entire 96 well plate is then incubated for 2 hrs at 37° C. Depending on the dilution of drug added, this yields individual wells containing 1 μM OKA, 0-64 μM drug and 2×10^4 cells in 0.26% DMSO in KRH. The incubation is terminated by the addition of 20 μl of 6X extraction buffer and immediate freezing at −80° C. for at least one hr. The 6X extraction buffer contains: 25 mM Tris-HCl, pH 7.6, 150 mM NaCl, 5 mM EDTA, 24 mM β-glycerol phosphate, 10 μg/ml APMSF (4-amidinophenylmethane-sulfonyl flouride), and 2.5 μg/ml each of leupeptin, aprotinin, and pepstatin. The plates are thawed in a 37° C. water bath and 20 μl of cell lysate is added to a replica well in an ELISA plate that already contains 80 μl of coating buffer (15 mM Na2CO3 and 35 mM NaHCO3, pH 9.6). The plates are allowed to coat overnight at 4° C. The plates are washed four times with deionized water and then blocked for 30 min at 37° C. with 200 μl/well pre-warmed 1% bovine serum albumin in 10 mM Tris-HCl, pH 7.4, 150 mM NaCl, 3 mM NaN3 (BSA-TBS). After the blocking solution is removed, 100 μl/well of an appropriate dilution of pre-warmed primary antibody (eg., TG3 or PHF-1) in BSA-TBS is added and incubated at 37° C. for 30 min. Incubation is terninated by washing four times in deionized water at which time 100 μl of an appropriate dilution of pre-warmed secondary antibody (conjugated to alkaline phosphatase) in BSA-TBS is added to each well in the ELISA plate. Incubation is performed for 30 min at 37° C. followed by washing 4 times with deionized water. […] of prewarmed chromogenic substrate (1 mg/mnl p-nitrophenyl phosphate in 10% diethanolamine, 3 mM NaN3, 0.5 mM MgCl2, pH 9.8) is added and the plate incubated for 30 min at 37° C. […]

The text below walks through data of patent US20010025105A1, “Certain substituted 1-aryl-3-piperazine-1'-yl propanones” (Molecular Geriatarics Corporation, priority 1997, published 2001).

Where a name gives a salt, the structure may show the parent alone. Read-outs that look alike come from different tables or passages of the source.

Compound `O=C(CCN1CCC(Cc2ccccc2)CC1)c1ccc(Br)s1` (as salt: hydrochloride) [Example 99, 1-(5″-Bromo-2″-thienyl)-3-(4′-benzyl-1′-piperidinyl)-1-propanone hydrochloride] displayed a melting point of 205 to 208 °C.
Consider `O=C(CCN1CCN(Cc2ccccc2)CC1)c1ccc2c(c1)OCCO2` (as salt: hydrochloride) [Example 19, 1-(2″,3″-Dihydro-1″,4″-benzodioxan-6″-yl)-3-(4′-benzyl-1′-piperazinyl)-1-propanone dihydrochloride], for which the melting point was 215 °C (dec.).
Take `O=C(CCN1CCN(Cc2ccccc2)CC1)c1cccn1S(=O)(=O)c1ccccc1` (as salt: hydrochloride) [Example 91, 1-(N-Phenylsulfonylpyrrol-2-yl)-3-(4′-benzyl-1′-piperazinyl)-1-propanone dihydrochloride]: the melting point was 215 °C (dec.).
With `O=C(CCN1CCN(Cc2ccccc2)CC1)c1ccc2c(c1)-c1ccccc1-2` [Example 58, 1-(Biphenylen-2″-yl)-3-(4′-benzyl-1′-piperazinyl)-1-propanone], the melting point is 133 to 134 °C.
Same read-out and setting: with `O=C(CCN1CCN(Cc2ccccc2)CC1)c1ccc(-c2ccccc2)s1` (as salt: hydrochloride) [Example 56, 1-(5″-Phenyl-2″-thienyl)-3-(4′-benzyl-1′-piperazinyl)-1-propanone dihydrochloride] the figure was 224 to 247 °C.
The compound `O=C(CCN1CCN(C(=O)c2sc3ccccc3c2Cl)CC1)c1ccc(Br)s1` (as salt: hydrochloride) [Example 86, 1-(5″-Bromo-2″-thienyl)-3-[4′-(3′″-chlorobenzo[b]-2′″-thienoyl)-1′-piperazinyl]-1-propanone dihydrochloride] yielded a melting point of 188 to 189 °C.
As for `O=C(CCN1CCN(Cc2ccccc2F)CC1)c1ccc([N+](=O)[O-])cc1` [Example 32, 1-(p-Nitrophenyl)-3-[4′-(o-fluorobenzyl)-1′-piperazinyl]-1-propanone dihydrochloride], the IC50 in data set [1] is 6.2 µM.
As for `O=C(CCN1CCN(Cc2ccccc2)CC1)c1ccc(Br)cc1` [Example 16, 1-(p-Bromophenyl)-3-(4′-benzyl-1′-piperazinyl)-1-propanone dihydrochloride], the IC50 in data set [1] is 5.2 µM.
Regarding `O=C(CCN1CCN(Cc2ccccc2)CC1)c1ccccc1I` [Example 81, 1-o-Iodophenyl-3-(4′-benzyl-1′-piperazinyl)-1-propanone dihydrochloride], the IC50 in data set [1] was determined as 4.5 µM.
On to `CS(=O)(=O)Nc1ccc(C(=O)CCN2CCN(Cc3ccccc3)CC2)cc1` [Example 26, 1-[-p-(Methanesulfonamido)phenyl]-3-(4′-benzyl-1′-piperazinyl)-1-propanone dihydrochloride], for which the IC50 in data set [1] (Homo sapiens) is 14.7 µM.
Consider `Cl.Cl.O=C(CCN1CCN(Cc2ccccc2)CC1)c1ccc([N+](=O)[O-])cc1` [Example 5, 1-p-Nitrophenyl)-3-(4′-benzyl-1′-piperaziny)-1-propanone dihydrochloride], for which the IC50 in data set [1] stood at 5 µM.
Take “1-(1-Nitrophenyl)-3-[4′-(2″,3″-difluorobenzoyl)-1′-piperazinyl]-1-propanone dihydrochloride [Example 63]”: the IC50 in data set [1] turned out to be 7.3 µM.
Same read-out and setting: with `CS(=O)(=O)Nc1ccc(C(=O)CCN2CCN(Cc3cc(F)ccc3F)CC2)cc1` [Example 36, 1-p-Methanesulfonamidophenyl)-3-(2″,5″-difluorobenzyl-1′-piperazinyl)-1-propanone dihydrochloride] the figure was 25 µM.
Regarding `O=C(CCN1CCN(Cc2ccccc2)CC1)c1ccc2c(c1)OCCO2` [Example 19, 1-(2″,3″-Dihydro-1″,4″-benzodioxan-6″-yl)-3-(4′-benzyl-1′-piperazinyl)-1-propanone dihydrochloride], in data set [1] (Homo sapiens), the IC50 stood at 15.6 µM.
As to `O=C(CCN1CCN(Cc2ccccc2)CC1)c1ccc(Br)s1` [Example 57, 1-(5″-Bromo-2″-thieny)-3-(4′-benzy-1′-piperazinyl)-1-propanone dihydrochloride], in data set [1], the IC50 turned out to be 6.8 µM.
Consider `O=C(CCN1CCN(Cc2ccccc2F)CC1)c1ccc(I)cc1` [Example 29, 1-(p-Iodophenyl)-3-[4′-(o-fluorobenzyl)-1′-piperazinyl]-1-propanone dihydrochloride], for which the 50% inhibitory concentration (IC50) in data set [1] came out at 8.7 µM.
With `Cc1ccc(C(=O)CCN2CCN(Cc3ccccc3)CC2)o1` [Example 67, 1-(5″-Methyl-2″-furanyl)-3-(4′-benzyl-1′-piperazinyl)-1-propanone hydrochloride], the IC50 in data set [1] (Homo sapiens) amounted to 20 µM.
In the case of `O=C(CCN1CCN(Cc2cccc(F)c2)CC1)c1ccc([N+](=O)[O-])cc1` [Example 42, 1-(p-Nitrophenyl)-3-[4′-(m-fluorobenzyl)-1′-piperazinyl]-1-propanonedihydrochloride], the IC50 in data set [1] turned out to be 5.7 µM.
Still for that read-out and setting: with `O=C(CCN1CCN(Cc2ccccc2)CC1)c1cccc([N+](=O)[O-])c1` [Example 11, 1-(m-Nitrophenyl)-3-(4′-benzyl-1′-piperazinyl)-1-propanone dihydrochloride] the figure was 4.2 µM.
In the case of `O=C(CCN1CCN(Cc2ccccc2)CC1)c1ccc(Sc2ccccc2)cc1` [Example 69, 1-p-Phenylthiophenyl-3-(4′-benzyl-1′-piperazinyl)-3-propanone dihydrochlonde], the IC50 in data set [1] (Homo sapiens) was found to be 15 µM.
`O=C(CCN1CCN(Cc2ccccc2)CC1)c1cccn1S(=O)(=O)c1ccccc1` [Example 91, 1-(N-Phenylsulfonylpyrrol-2-yl)-3-(4′-benzyl-1′-piperazinyl)-1-propanone dihydrochloride]: the half-inhibitory concentration (IC50) in data set [1] (Homo sapiens) amounted to 9.5 µM.
In the case of `O=C(CCN1CCC(C(=O)c2ccc(F)cc2)CC1)c1csc([N+](=O)[O-])c1` [Example 98, 1-(2″-Nitro-4″-thienyl)-3-(4′-p-fluorobenzoyl-1′-piperidinyl)-1-propanone hydrochloride], the half-inhibitory concentration (IC50) in data set [1] (Homo sapiens) is 34 µM.
Take `O=C(CCN1CCN(C(=O)c2ccccc2C(F)(F)F)CC1)c1ccc([N+](=O)[O-])cc1` [Example 39]: in data set [1], the 50% inhibitory concentration (IC50) worked out at 10 µM.
As for `O=C(CCN1CCN(Cc2ccccc2)CC1)c1ccccc1F` [Example 13, 1-(o-Fluorophenyl)-3-(4′-benzyl-1′-piperazinyl)-1-propanone dihydrochloride], in data set [1], the IC50 came out at 11 µM.
On to `O=C(CCN1CCN(Cc2ccc(F)c(F)c2)CC1)c1ccc([N+](=O)[O-])cc1` [Example 55, 1-(p-Nitrophenyl)-3-[4′-(3″,4″-difluorobenzyl)-1′-piperazinyl]-1-propanone dihydrochloride], for which, in data set [1], the half-maximal inhibitory concentration (IC50) was 6.3 µM.
As for “1-(-Methylthiophenyl)-3-(4′-benzyl-1′-piperazinyl)-1-propanonedihydrochloride [Example 14]”, the IC50 in data set [1] turned out to be 5.8 µM.
Same read-out and setting: with `O=C(CCN1CCN(Cc2ccc(F)cc2)CC1)c1ccccc1F` [Example 44, 1-(o-Fluorophenyl)-3-[4′-(p-fluorobenzyl)-1′-piperazinyl]-1-propanone dihydrochloride] the figure was 7.5 µM.
